Results published in PMC6844379, “Design, synthesis, in vitro inhibition and toxicological evaluation of human carbonic anhydrases I, II and IX inhibitors in 5-nitroimidazole series” (Journal of Enzyme Inhibition and Medicinal Chemistry, 2019).

Molecular target: T1, hCA I (Homo sapiens, UniProt P00915)
T1 construct: gene CA1; recombinant, obtained in house as reported earlier; cytosolic isoform
Assay: stopped-flow CO2 hydrase assay
Assay type: biochemical
Details: […] Hepes pH […] Na2SO4, CO2 […], […] min pre-incubation at room temperature

T1 sequence (P00915 2-261): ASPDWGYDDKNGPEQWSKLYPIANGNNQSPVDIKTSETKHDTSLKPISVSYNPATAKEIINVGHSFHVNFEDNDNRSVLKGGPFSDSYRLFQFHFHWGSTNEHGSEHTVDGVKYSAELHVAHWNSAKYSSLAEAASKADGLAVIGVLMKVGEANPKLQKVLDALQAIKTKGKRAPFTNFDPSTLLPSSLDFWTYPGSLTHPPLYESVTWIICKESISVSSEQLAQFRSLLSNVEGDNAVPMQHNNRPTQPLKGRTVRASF

- Ki: 6430 nM
Structure (SMILES): Cc1ncc([N+](=O)[O-])n1CCS(N)(=O)=O [compound 10, 2-(2-Methyl-5-nitro-1H-imidazol-1-yl)ethane-1-sulphonamide]
